Source: US20250064740A1, “MULTI-VESICULAR LIPID NANOPARTICLE TOLEROGENIC VACCINES FOR INDUCTION OF SYSTEMIC IMMUNE TOLERANCE IN VIVO” (KARMA BIOTECHNOLOGIES, priority 2022, published 2025)

Tests used:
[1] = system: murine bone marrow-derived macrophages; assay: In vitro immunogenicity: TNFa release by ELISA; format: cell-based, mouse; details: positive controls
Description: TNFa release was quantitated by ELISA. Bar charts show mean TNFa release per treatment group (n=3 replicates per treatment group). Error bars indicate SEM. Filled circles indicate mean TNFa release for each individual replicate for each treatment group. Colors of filled circles indicate treatment group.

Jurkat cells = assay: SNIPR uptake/transfection of a T cell line with endocytosis inhibitors; format: cell-based; details: MbC 15 uM, 1 h pretreatment
HepG2 cells = assay: SNIPR [pEGFP] transfection of a liver cell line with caveolin inhibitor; format: cell-based; details: MbC 15 uM, 1 h pretreatment, 48 h

Row | Substance | TNFa release [1] | Transfection of a T cell line by pDNA-loaded SNIPR nanoparticles in presence of inhibitor (Jurkat cells) | Transfection of a liver cell line by pDNA-loaded SNIPR nanoparticles in presence of inhibitor (HepG2 cells)
1 | lipopolysaccharide [LPS] | strongly elicited | – | –
2 | Methyl-beta-cyclodextrin [MbC] | – | abrogated | abrogated
